# US6620779B2, “Method of enhancing the efficacy of anti-tumor agents” (Health Research Inc., priority 1999, dated 2003)
# Entries after “also recorded” stand apart in the source; their conditions may differ.
# Key:
# [1] = Performance status (morbidity/mortality criteria) of treated tumor-bearing mice; type: in vivo, CB 17-SCID/SCID mice; set-up: key to Performance status score, individual mice: A grade of 0 equaled normal health; a grade of 5+ equaled death; conditions: for Performance status score, individual mice: mouse no. 1-10, Table 2 (counts match day +14)
# Protocol: To illustrate this embodiment, performance status of mice from Example 1 receiving the various treatments was evaluated. Performance status was assessed on days 0, +7, and +14 using five objective criteria associated with morbidity and mortality in experimental mice. The five criteria were (1) ruffled fur; (2) weakness/lethargy; (3) 20% weight loss compared to the mean weight of control animals; (4) kyphotic hunched posturing; and (5) death. A grade of 0 equaled normal health and a grade of 5+ equaled death.
# [2] = system: human ovarian cancer xenografts (papillary serous adenocarcinoma of the ovary); experiment: Large gonadal fat pad (GFP) human ovarian cancer xenograft in SCID mice, single cisplatin dose, tumor growth; type: in vivo, CB 17-SCID/SCID mice; conditions: large GFP tumors; cisplatin 5 mg/kg ip day 0; EPO 20 units sc three times per week day −15 to +6; necropsy day 7
# Protocol: To illustrate this embodiment, experiments were carried out in immunodeficient SCID mice bearing human ovarian cancer.
# Eighty CB 17-SCID/SCID mice (Taconic Labs) were used. The animals were kept under sterile and light-controlled conditions. Portions of tumors from patients with recurrent stage IIIC, grade 3, papillary serous adenocarcinoma of the ovary were implanted and propagated in SCID mice by procedures well known to those skilled in the art. Briefly, xenografts were grown and passaged at least five times prior to the implantation of tumors into experimental animals. […]
# Automated hematocrits were obtained from tail bleeds performed on three mice selected randomly from each group on days −15, −7, 0, and +7. […] Tumors were excised and measured in three dimensions with vernier calipers. Tumor volume was calculated as follows. […]
# The percent growth of the tumor was calculated using the formula: […]
# (§1) Percent tumor growth was calculated for each index day compared to day 0 and plotted over time. […] The growth curves developed in the smaller subcutaneous tumor group and the curves representing change in the hematocrit over time were analyzed by analysis of variance. […]
# [3] = Automated hematocrits from tail bleeds of tumor-bearing SCID mice; type: in vivo, CB 17-SCID/SCID mice; set-up: Hematocrits: unit not given here; conditions: for Hematocrits: mice bearing small subcutaneous tumors
# Protocol: Automated hematocrits were obtained from tail bleeds performed on three mice selected randomly from each group on days −15, −7, 0, and +7. No mouse was bled twice. On day 7, mice were sacrificed and necropsies were performed. Tumors were excised and measured in three dimensions with vernier calipers. Tumor volume was calculated as follows.
# (§2) In another illustration of this embodiment, cisplatin was administered twice during the treatment. In additional forty experimental mice at six weeks of age, 2 mm portions of human ovarian cancer xenografts were implanted. Treatment groups were randomly assigned three days after implantation. Group I animals (controls) received 100 μl of PBS three times per week subcutaneously from day −15 to day +13 and 300 μl PBS ip on day 0 and 7. Mice in Group II (EPO group) received EPO subcutaneously at a dose of 20 units in 100 μl of PBS three times per week from day −15 to day +13 and 300 μl of PBS ip on day 0 and 7. Mice in Group III (cisplatin group) received cisplatin ip at a dose of 5 mg/kg in 300 μl of PBS on day 0 and 7, and 100 μl of subcutaneous PBS three times per week from day −15 to day +13. Mice in Group IV (EPO+cisplatin group) received subcutaneous EPO injections as in group 2 three times per week from day −15 to day +13 and ip cisplatin injections as in group 3 on day 0 and 7. Mice were observed until day +15.
# Automated hematocrits were obtained as described above on days −15, −7, 0, +7, and +14. The change in hematocrit relative to the initial hematocrit was plotted over time. Serial measurements of tumor nodules were made in two dimensions using vernier calipers starting on day zero. On day zero, tumors had grown to approximately 4 mm×5 mm in size in each group. Tumor volumes were calculated on days 0, +1, +3, +5, +7, +9, +11, +13 and +15 using the formula.
# Percent tumor growth was calculated for each index day compared to day 0 and plotted over time. Statistical analysis included Student T tests for the overall tumor growth in the large GFP tumor experiment. The growth curves developed in the smaller subcutaneous tumor group and the curves representing change in the hematocrit over time were analyzed by analysis of variance. Significance was defined by P values less than 0.05.
# [4] = in vivo; cited from earlier work
# [5] = system: human ovarian cancer xenografts; experiment: Small subcutaneous human ovarian cancer xenograft in SCID mice, cisplatin on day 0 and 7, tumor growth curves; type: in vivo, CB 17-SCID/SCID mice; conditions: subcutaneous tumor nodules; cisplatin 5 mg/kg ip day 0 and 7; EPO 20 units sc three times per week day −15 to +13; to day +15; FIG. 1
# Protocol: as §2, with “Mice in Group IV (EPO+cisplatin group) received subcutaneous EPO injections as in group 2 three times per week from day −15 to day +13 and ip cisplatin injections as in group 3 on day 0 and 7. Mice were observed until day +15.” left out
# Automated hematocrits were obtained as described above on days −15, −7, 0, +7, and +14. […] Tumor volumes were calculated on days 0, +1, +3, +5, +7, +9, +11, +13 and +15 using the formula. […]
# as §1
Compound,"Mice with 20% weight loss compared to controls ([1]; day +7, 10 mice per group)","Mice with ruffled fur ([1]; day +7, 10 mice per group)","Mice with signs of weakness/lethargy ([1]; day +7, 10 mice per group)","Mice with hunched posturing ([1]; day +14, 10 mice per group)","Mortalities ([1]; day +14, 10 mice per group)","Performance status score, individual mice [1]","Tumor growth (percent tumor growth, tumor size at necropsy) [2]",Hematocrits ([3]; Week 0),Hematocrits ([3]; Week +1),Hematocrits ([3]; Week +2),Hematocrits ([3]; Week −1),Hematocrits ([3]; Week −2 (initial value)),"Decrease in the hematocrit ([3]; over time vs initial value, FIG. 2) [%]",Half life in the plasma [4],"Performance status scores ([1]; day +7, all mice of the group)","Performance status score, Total ([1]; sum over 10 mice, Table 2)",Tumor growth curves (percent tumor growth vs day 0) [5],"Increase in the hematocrit compared to its initial value ([3]; vs week −2, p<0.01 vs controls, FIG. 2)"
"N.N.[Cl][Pt][Cl] [CISPLATIN, cis-diamine dichloro platinum]",6,all,all,3,4,+ + +; also recorded: + + + +; also recorded: + + + + +,significant difference in the tumor growth was observed in the groups treated with and without cisplatin,39.8 ± 0.3,40.7 ± 0.1,33.1 ± 0.3,39.8 ± 0.2,39.8 ± 0.2,20,–,–,–,–,–
"EPO: erythropoietin, hormone regulating red blood cell production; used as hematocrit elevator",–,–,–,–,–,0,No difference was observed between the controls and the EPO group,48.9 ± 0.3,49.3 ± 0.3,53.6 ± 0.4,44.9 ± 0.2,39.5 ± 0.2,–,about 5 hours,zero,0,no difference was observed between the controls and the EPO group,25-35%
